The values that follow come from US11666561B2, “Compounds for use in regulating follicle maturation” (AARHUS UNIVERSITET, priority 2017, dated 2023).

“Also recorded” adds a separate entry of the source. Structures can show the parent of a compound that is named as a salt.

In this data set the test system is primordial-to-primary follicle transition. Nature of the data set: In vitro organ culture of mouse ovaries with compound, H&E histology and counting of primordial, primary and secondary follicles. The following applies: for effect on primordial-to-primary follicle transition / primordial follicle activation: in vitro cultured mouse ovaries, concentration not given. On the procedure:
Ovaries obtained from mice were washed twice with culture medium. Antagonists or agonists to be tested were dissolved in suitable solvents and added to the medium. As a control medium comprising solvent without the antagonist or agonist was used. One of the ovaries was cultured in a control medium and another was cultured with the antagonist or agonist. The tested antagonists or agonists and their concentrations are outlined in table 2.
Ovaries were incubated with antagonist at 37° C. and 5% CO2 for 24 and 96 hours, respectively (see table 3).
Cultures ovaries were fixed, embedded in paraffin and sliced microscopy. The sectioned ovaries were stained with hematoxylin and eosin (H&E) to visualize the morphology of the ovary by microscopy.
The number of primordial, primary and secondary follicles was determined, and it was determined whether the antagonist or agonist was capable of regulating folliculogenesis.
C57BL/6j×CBA F1 hybrid mice (Janvier Labs, France) were housed and bred in the animal facilities at Department of Biomedicine, Aarhus University. Animals were housed in a 12:12 h controlled light-dark environment and were provided with food and water ad libitum. 7-day-old female pups were used for the study.
Pups were sacrificed and ovaries were excised. Using a stereomicroscope MZ75 (Leica Microsystems, Germany), excess tissue was removed. During the dissection, ovaries were kept at 37° C. in culture medium: aMEM (Thermo Fisher) supplemented with 10% FBS (Thermo Fisher), 100 mIU/mL of FSH (Sigma-Aldrich), 100 IU/mL penicillin (Thermo Fisher), 100 μg/mL streptomycin (Thermo Fisher) and 1% Insulin-Transferrin-Selenium (Thermo Fisher). Isolated ovaries were transferred into well inserts (PET membrane ThinCert, 0.4 μm-pore size; Greiner bio-one) in 24-well plates (Tissue culture treated, cell culture plates; Costar). 200-300 μL of culture medium was added to the well below the insert and up to two ovaries were placed on the membrane of each insert. The culture medium was supplemented with different concentrations of the tested compounds; bpV(HOpic) (Sigma-Aldrich), Temsirolimus (Sigma-Aldrich), Ketotifen (Sigma-Aldrich), 3PO (Sigma-Aldrich), Dorsomorphin (Sigma-Aldrich), AICAR (Sigma-Aldrich), NCG (Sigma-Aldrich), and Dyphylline (Cayman Chemical). Up to six wells in the 24-well plate were used for inserts. Sterile dH2O was added to the rest of the wells to ensure humidity and reduce evaporation. The ovaries were cultured at 37° C., 5% CO2 for four days. 150 μL of medium was replaced every other day with fresh culture medium.
Ovaries kept in organ culture for four days were fixed for 24 hours in 4% paraformaldehyde solution at 4° C. After fixation, ovaries were dehydrated in ethanol series using 70%, 96% and 99.9% ethanol. Xylene was used as clearing agent before the ovaries were infiltrated in paraffin wax. 5 μm-sections of samples in paraffin were cut using a microtome (Cut 6062, SLEE medical, Germany). Paraffin sections were mounted on glass slides, paraffin was melted at 60° C., and the samples were stained with hematoxylin and eosin (using standard protocols).
The samples were deparaffinized by incubating in xylene for 2×15 min. and subsequently rehydrated in series of ethanol; 3×2 min. in 99.9% ethanol, 2 min. in 96% ethanol, and 2 min. in 70% ethanol. The samples were then rinsed in dH2O, stained in hematoxylin for 40 sec., rinsed in dH2O for 5 min., and stained in eosin for 46 sec. The samples were dehydrated in ethanol: 2×2 min. in 96% ethanol, 2×2 min in 99.9% ethanol, and finally cleared up in xylene for at least 30 min before mounting the samples using Eukitt mounting medium (Sigma-Aldrich) and cover glass.
The number of follicles at each developmental stage was counted using an inverted research microscope (DM14000B, Leica Microsystems, Germany). The follicles of every 3rd to 4th section of each ovary were counted and the distribution of follicles in the different stages in percentage was determined.

Setting [1] is: 30 μM 3PO, ovaries cultured four days, only healthy follicles counted.
Where [2] appears, read: Table 1, effect with a figure cited.
Where [3] appears, read: Table 2, effect with a figure cited.
The mark [4] stands for this setting: 1.0 μM Trigonellin hydrochloride, 96 hours.

Regarding `O=C(C=Cc1cccnc1)c1ccncc1` [3PO, 3-(3-pyridinyl)-1-(4-pyridinyl)-2-propen-1-one], the “effect on primordial-to-primary follicle transition / primordial follicle activation” value was “promote primordial-to-primary transition”. Further, under setting [1], the primary follicles came to 26.60±11.24%, the primordial follicles was 63.11±8.83% and the secondary follicles stood at 11.58±9.07%. For the same compound, under “3PO treated ovaries”, the “health of follicles in treated ovaries” value is reported as “several of the follicles seemed atretic”. Besides, the Effect result under setting [2] is given as “promotes”. The Effect entry under setting [3] was “promotes”.

In the case of `CCOc1cc2ncc(C#N)c(Nc3ccc(F)c(Cl)c3)c2cc1NC(=O)/C=C/CN(C)C` [Pelitinib, (E)-N-[4-(3-chloro-4-fluoroanilino)-3-cyano-7-ethoxyquinolin-6-yl]-4-(dimethylamino)but-2-enamide], the Effect entry is “promotes” (Table 1, marked (ongoing)) and “promotes” (Table 2, marked (ongoing)).

Turning to `NC(=O)c1ncn([C@@H]2O[C@H](CO)[C@@H](O)[C@H]2O)c1N` [AICAR, 5-aminoimidazole-4-carboxamide-1β-D-ribofuranoside], the “effect on primordial-to-primary follicle transition / primordial follicle activation” value was “suppress the primordial-to-primary follicle transition”. Moreover, the “follicles (stage not given; activation of primordial follicles inhibited)” value (0.5 mM AICAR (n=1), data not shown) is given as 83.83±3.06%. Besides, for the setting “1 mM AICAR, four days”, the primary follicles came to 10.82±4.98%, the primordial follicles is reported as 86.02±5.84% and the secondary follicles came out at 3.0±3.09%. Moreover, under “AICAR 0.1-1 mM, four days”, the “health of growing follicles in treated ovaries” value is on record as “growing follicles within the ovary tended to appear unhealthy; also recorded: too harsh for the growing follicles”. For the same compound, under setting [2], the Effect entry was “promotes”. Under setting [3], the Effect result is on record as “promotes”.

For `CO[C@H]1C[C@@H]2CC[C@@H](C)[C@@](O)(O2)C(=O)C(=O)N2CCCC[C@H]2C(=O)O[C@H]([C@H](C)C[C@@H]2CC[C@@H](OC(=O)C(C)(CO)CO)[C@H](OC)C2)CC(=O)[C@H](C)/C=C(\C)[C@@H](O)[C@@H](OC)C(=O)[C@H](C)C[C@H](C)/C=C/C=C/C=C/1C` [Temsirolimus], the “effect on primordial-to-primary follicle transition / primordial follicle activation” value was “decrease the rate of primordial-to-primary transition”.

On to `COc1cc2c(cc1OC(C)C)[C@H](c1ccc(Cl)cc1)N(c1ccc(N(C)CC3CCC(N4CCN(C)C(=O)C4)CC3)cc1)C(=O)C2` (stereo partly drawn) [CGM097, (1S)-1-(4-chlorophenyl)-6-methoxy-2-[4-[methyl-[[4-(4-methyl-3-oxopiperazin-1-yl)cyclohexyl]methyl]amino]phenyl]-7-propan-2-yloxy-1,4-dihydroisoquinolin-3-one], for which the Effect result (Table 1, marked (ongoing)) is reported as “promotes” and the Effect entry (Table 2, marked (ongoing)) is “promotes”.

Regarding `CC(=O)CCCCn1c(=O)c2c(ncn2C)n(C)c1=O` [Pentoxifylline, 3,7-dimethyl-1-(5-oxohexyl)purine-2,6-dione], the Effect result is given as “promotes” (Table 1, marked (ongoing)) and “promotes” (Table 2, marked (ongoing)).

Consider `C[C@H]1Cc2ccccc2N1C(=O)Cc1nc(N2CCOCC2)cc(=O)[nH]1` [SAR260301, (S)-2-(2-(2-Methylindolin-1-yl)-2-oxoethyl)-6-morpholinopyrimidin-4(3H)-one], for which the Effect result is listed as “promotes” (Table 1, marked (ongoing)) and “promotes” (Table 2, marked (ongoing)).

Regarding `CC1(O)CC(c2nc(-c3ccc4ccc(-c5ccccc5)nc4c3)c3c(N)nccn23)C1` (centres unmarked) [Linsitinib, 3-[8-amino-1-(2-phenylquinolin-7-yl)imidazo[1,5-a]pyrazin-3-yl]-1-methylcyclobutan-1-ol], the Effect result is, setting by setting: (Table 1, marked (ongoing)) “promotes”; (Table 2, marked (ongoing)) “promotes”.

Regarding `CCCCNC(=O)NS(=O)(=O)c1ccc(C)cc1` [Tolbutamide, 1-butyl-3-(4-methylphenyl)sulfonylurea], the Effect entry is, setting by setting: (Table 1, marked (ongoing)) “promotes”; (Table 2, marked (ongoing)) “promotes”.

As for `Nc1cc(-c2ccncc2)c[nH]c1=O` [Amrinone, 3-amino-5-pyridin-4-yl-1H-pyridin-2-one], the Effect result is “promotes” (Table 1, marked (ongoing)) and “promotes” (Table 2, marked (ongoing)).

Consider `NC(=O)N[C@@H](CCC(=O)O)C(=O)O` [NCG, (2S)-2-(carbamoylamino)pentanedioic acid], for which the “effect on follicle distribution” value (10, 20 and 30 μM NCG, 96 hours) is reported as “has the potential to activate primordial follicle distribution”. Also, the Effect result is, setting by setting: under setting [2], “promotesfollicle”; under setting [3], “promotesfollicle”.

Regarding `CS(=O)(=O)N1CCN(Cc2cc3nc(-c4cccc5[nH]ncc45)nc(N4CCOCC4)c3s2)CC1` [Pictilisib, 2-(1H-indazol-4-yl)-6-(4-methanesulfonylpiperazin-1-ylmethyl)-4-morpholin-4-ylthieno(3,2-d)pyrimidine], the Effect result reads like this: (Table 1, marked (ongoing)) “promotes”; (Table 2, marked (ongoing)) “promotes”.

In the case of `COC(=O)C1=C(C)NC(C)=C([N+](=O)[O-])C1c1ccccc1C(F)(F)F` (centres unmarked) [BAY 1217389, methyl 2,6-dimethyl-5-nitro-4-[2-(trifluoromethyl)phenyl]-1,4-dihydropyridine-3-carboxylate], the Effect result is, setting by setting: (Table 1, marked (ongoing)) “promotes”; (Table 2, marked (ongoing)) “promotes”.

With `Nc1ccn([C@@H]2O[C@H](CO)[C@@H](O)[C@@H]2O)c(=O)n1` [MK-8242, 4-amino-1-[(2R,3S,4S,5R)-3,4-dihydroxy-5-(hydroxymethyl)oxolan-2-yl]pyrimidin-2-one], the Effect result runs as follows: (Table 1, marked (ongoing)) “promotes”; (Table 2, marked (ongoing)) “promotes”.

`Cn1c(=O)c2c(ncn2CC(O)CO)n(C)c1=O` (centres unmarked) [Dyphylline, 7-(2,3-dihydroxypropyl)-1,3-dimethylpurine-2,6-dione]: the “effect on primordial-to-primary follicle transition / primordial follicle activation” value is listed as “activation of primordial follicles”. The “effect on follicle distribution” value (10 and 100 μM Dyphylline, 96 hours, number too small for statistics) was “has the potential to activate primordial follicle distribution”. In addition, the Effect result under setting [2] is recorded as “Promotes”. For the same compound, under setting [3], the Effect result is “Promotes”.

On to `C=CC(=O)Nc1cc(Nc2nccc(-c3cn(C)c4ccccc34)n2)c(OC)cc1N(C)CCN(C)C` [Osimertinib, N-[2-[2-(dimethylamino)ethyl-methylamino]-4-methoxy-5-[[4-(1-methylindol-3-yl)pyrimidin-2-yl]amino]phenyl]prop-2-enamide], for which the Effect entry by setting is: (Table 1, marked (ongoing)) “promotes”; (Table 2, marked (ongoing)) “promotes”.

Regarding `Nc1cc(C(F)(F)F)c(-c2cc(N3CCOCC3)nc(N3CCOCC3)n2)cn1` [Buparlisib, 5-(2,6-dimorpholinopyrimidin-4-yl)-4-(trifluoromethyl)pyridin-2-amine], the Effect result was “promotes” (Table 1, marked (ongoing)) and “promotes” (Table 2, marked (ongoing)).

As for `CC(C)[C@@H](CS(=O)(=O)C(C)C)N1C(=O)[C@@](C)(CC(=O)O)C[C@H](c2cccc(Cl)c2)[C@H]1c1ccc(Cl)cc1` [AMG-232, 2-[(3R,5R,6S)-5-(3-chlorophenyl)-6-(4-chlorophenyl)-3-methyl-1-[(2S)-3-methyl-1-propan-2-ylsulfonylbutan-2-yl]-2-oxopiperidin-3-yl]acetic acid], the Effect entry is, setting by setting: (Table 1, marked (ongoing)) “promotes”; (Table 2, marked (ongoing)) “promotes”.

Take `CC(C)c1cc(CNc2nc(Nc3cc(C4CC4)[nH]n3)cc(N3CCN(C)CC3)n2)on1` [XL228, 4-N-(5-cyclopropyl-1H-pyrazol-3-yl)-6-(4-methylpiperazin-1-yl)-2-N-[(3-propan-2-yl-1,2-oxazol-5-yl)methyl]pyrimidine-2,4-diamine]: the Effect result was “promotes” (Table 1, marked (ongoing)) and “promotes” (Table 2, marked (ongoing)).

Consider `C[n+]1cccc(C(=O)[O-])c1` [Trigonellin hydrochloride], for which, under setting [4], the “decrease in the average numbers of primordial follicles compared to the control” value is about 20% and the “increase compared to the control (follicle stage not given)” value was about 74%.
